Source: patent US20090053237A1, “USE OF PENICILLIN-BINDING PROTEINS OR POLYNUCLEOTIDES OR ANTIBODIES THEREOF FOR PREVENTING OR TREATING BACTERIAL INFECTIONS” (priority 2005, published 2009)

Assays:
Type in all cases: cell-based
[1] = tested on: Neisseria meningitidis strain LNP8013; assay: MIC of penicillin G, strain LNP8013; settings: strain LNP8013, serogroup C
From the text: (§1) Features of all Neisseria meningitidis strains for which a recombinant Neisseria meningitidis PBP2 fragment lacking the N-terminal transmembrane domain was produced are listed in following Table 3.

[2] = tested on: Neisseria meningitidis strain LNP17041; assay: MIC of penicillin G, strain LNP17041; settings: strain LNP17041, serogroup B
From the text: as §1

[3] = tested on: Neisseria meningitidis strain TR TH-41; assay: MIC of penicillin G, strain TR TH-41; settings: strain TR TH-41, serogroup C
From the text: as §1

[4] = tested on: Neisseria meningitidis strain LNP16504; assay: MIC of penicillin G, strain LNP16504; settings: strain LNP16504, serogroup B
From the text: as §1

[5] = tested on: Neisseria meningitidis strain LNP16454; assay: MIC of penicillin G, strain LNP16454; settings: strain LNP16454, serogroup C
From the text: as §1

[6] = tested on: Neisseria meningitidis strain TR 16454; assay: MIC of penicillin G, strain TR 16454; settings: strain TR 16454, serogroup C
From the text: as §1

[7] = tested on: Neisseria meningitidis strain TR 16504; assay: MIC of penicillin G, strain TR 16504; settings: strain TR 16504, serogroup C
From the text: as §1

[8] = tested on: Neisseria meningitidis strain LNP17723; assay: MIC of penicillin G, strain LNP17723; settings: strain LNP17723, serogroup C
From the text: as §1

CC1(C)S[C@@H]2[C@H](NC(=O)Cc3ccccc3)C(=O)N2[C@H]1C(=O)O [Penicillin G]
MIC Penicillin G [1]: 0.094 µg/mL | MIC Penicillin G [2]: 0.5 µg/mL | MIC Penicillin G [3]: 0.5 µg/mL | MIC Penicillin G [4]: 0.25 µg/mL | MIC Penicillin G [5]: 1 µg/mL | MIC Penicillin G [6]: 0.5 µg/mL | MIC Penicillin G [7]: 0.38 µg/mL | MIC Penicillin G [8]: 0.75 µg/mL
